The values below come from US9296704B2, “Substituted pyrimidines as protein kinase inhibitors” (CELGENE AVILOMICS RESEARCH, INC., priority 2007, dated 2016).

In one assay the target is ErbB4 (Homo sapiens, UniProt Q15303). The experiment in a line: Z'-LYTE biochemical assay, ErbB4 kinase inhibition. As to conditions: @ 1 μM. On the procedure: (§1) Compounds of the present invention were assayed as inhibitors of one or more of ErbB1, ErbB2, and/or ErbB4 in a manner substantially similar to the method described by Invitrogen Corp (Invitrogen Corporation, 1600 Faraday Avenue, Carlsbad, Calif., CA; http://www.invitrogen.com/downloads/Z-LYTE_Brochure—1205.pdf) using the Z′-LYTE™ biochemical assay procedure or similar biochemical assay. The Z′-LYTE™ biochemical assay employs a fluorescence-based, coupled-enzyme format and is based on the differential sensitivity of phosphorylated and non-phosphorylated peptides to proteolytic cleavage.

In another assay the target is T1, EGFR (T790M/L858R) (Homo sapiens, UniProt P00533, L858R/T790M).
T1 construct: purchased BPS Bioscience 40350
The experiment in a line: Omnia continuous-read kinase assay, EGFR (T790M/L858R). The class given is biochemical. As to conditions: read-out: EGFR (T790M/L858R) inhibiton. An excerpt: (§2) The protocol below describes continuous-read kinase assays to measure inherent potency of compounds against active forms of EGFR (WT) and EGFR (T790M/L858R) enzymes. The mechanics of the assay platform are best described by the vendor (Invitrogen, Carlsbad, Calif.) on their website at the following URL: http://www.invitrogen.com/content.cfm?pageid=11338 or http://www.invitrogen.com/site/us/en/home/Products-and-Services/Applications/Drug-Discovery/Target-and-Lead-Identification-and-Validation/KinaseBiology/KB-Misc/Biochemical-Assays/Omnia-Kinase-Assays.html.
(§3) Briefly, 10× stocks of EGFR-WT (PV3872) from Invitrogen and EGFR-T790M/L858R (40350) from BPS Bioscience, San Diego, Calif., 1.13×ATP (AS001A) and appropriate Tyr-Sox conjugated peptide substrates (KCZI001) were prepared in 1× kinase reaction buffer consisting of 20 mM Tris, pH 7.5, 5 mM MgCl2, 1 mM EGTA, 5 mM β-glycerophosphate, 5% glycerol (10× stock, KB002A) and 0.2 mM DTT (DS001A). 5 μL of each enzyme were pre-incubated in a Corning (#3574) 384-well, white, non-binding surface microtiter plate (Corning, NY) for 30 min. at 27° C. with a 0.5 μL volume of 50% DMSO and serially diluted compounds prepared in 50% DMSO. Kinase reactions were started with the addition of 45 μL of the ATP/Tyr-Sox peptide substrate mix and monitored every 30-90 seconds for 60 minutes at λex360/λem485 in a Synergy^4 plate reader from BioTek (Winooski, Vt.). At the conclusion of each assay, progress curves from each well were examined for linear reaction kinetics and fit statistics (R^2, 95% confidence interval, absolute sum of squares). Initial velocity (0 minutes to ˜30 minutes) from each reaction was determined from the slope of a plot of relative fluorescence units vs time (minutes) and then plotted against inhibitor concentration to estimate IC50 from log [Inhibitor] vs Response, Variable Slope model in GraphPad Prism from GraphPad Software (San Diego, Calif.).
The EGFR-WT- and EGFR T790M/L858R-modified optimized reagent conditions are: • [EGFR-WT]=5 nM, [ATP]=[…], [Y12-Sox]=[…]; and [EGFR-T790M/L858R]=3 nM, [ATP]=[…], [Y12-Sox]=[…].

A further assay has as its target T2, EGFR (WT) (Homo sapiens, UniProt P00533).
T2 construct: purchased Invitrogen PV3872
The experiment in a line: Omnia continuous-read kinase assay, EGFR (WT). As to conditions: read-out: EGFR inhibtion. The class given is biochemical. An outline of the steps: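 Enzyme pre-incubated 30 min at 27 °C with compound, then ATP/Y12-Sox peptide added; fluorescence (ex360/em485) read continuously 60 min in 20 mM Tris pH 7.5, 5 mM MgCl2, 0.2 mM DTT. WT: 5 nM enzyme, […]; T790M/L858R: 3 nM enzyme, […]. IC50 from initial velocities, variable-slope fit.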

The next assay has as its target BTK (Homo sapiens, UniProt Q06187). The experiment in a line: Omnia assay for potency against BTK. The format is biochemical. The note with it: read-out: BTK Inhibition. An outline of the steps: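 BTK (5 nM) was pre-incubated 30 min at 27° C with serially diluted compounds in Tris pH 7.5/MgCl2 buffer, then started with […] and Y5-Sox peptide 10 mM (ATP KMapp ~36 mM). Fluorescence (ex360/em485) was read continuously over 60 min. IC50 came from initial velocities using a variable-slope fit.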

The target of the next assay is ErbB1 (Homo sapiens, UniProt P00533). The experiment in a line: Z'-LYTE biochemical assay, ErbB1 kinase inhibition. The procedure: as §1
A further assay concerns the target T3, JAK3 (Homo sapiens, UniProt P52333).
T3 sequence (P52333 1-1124): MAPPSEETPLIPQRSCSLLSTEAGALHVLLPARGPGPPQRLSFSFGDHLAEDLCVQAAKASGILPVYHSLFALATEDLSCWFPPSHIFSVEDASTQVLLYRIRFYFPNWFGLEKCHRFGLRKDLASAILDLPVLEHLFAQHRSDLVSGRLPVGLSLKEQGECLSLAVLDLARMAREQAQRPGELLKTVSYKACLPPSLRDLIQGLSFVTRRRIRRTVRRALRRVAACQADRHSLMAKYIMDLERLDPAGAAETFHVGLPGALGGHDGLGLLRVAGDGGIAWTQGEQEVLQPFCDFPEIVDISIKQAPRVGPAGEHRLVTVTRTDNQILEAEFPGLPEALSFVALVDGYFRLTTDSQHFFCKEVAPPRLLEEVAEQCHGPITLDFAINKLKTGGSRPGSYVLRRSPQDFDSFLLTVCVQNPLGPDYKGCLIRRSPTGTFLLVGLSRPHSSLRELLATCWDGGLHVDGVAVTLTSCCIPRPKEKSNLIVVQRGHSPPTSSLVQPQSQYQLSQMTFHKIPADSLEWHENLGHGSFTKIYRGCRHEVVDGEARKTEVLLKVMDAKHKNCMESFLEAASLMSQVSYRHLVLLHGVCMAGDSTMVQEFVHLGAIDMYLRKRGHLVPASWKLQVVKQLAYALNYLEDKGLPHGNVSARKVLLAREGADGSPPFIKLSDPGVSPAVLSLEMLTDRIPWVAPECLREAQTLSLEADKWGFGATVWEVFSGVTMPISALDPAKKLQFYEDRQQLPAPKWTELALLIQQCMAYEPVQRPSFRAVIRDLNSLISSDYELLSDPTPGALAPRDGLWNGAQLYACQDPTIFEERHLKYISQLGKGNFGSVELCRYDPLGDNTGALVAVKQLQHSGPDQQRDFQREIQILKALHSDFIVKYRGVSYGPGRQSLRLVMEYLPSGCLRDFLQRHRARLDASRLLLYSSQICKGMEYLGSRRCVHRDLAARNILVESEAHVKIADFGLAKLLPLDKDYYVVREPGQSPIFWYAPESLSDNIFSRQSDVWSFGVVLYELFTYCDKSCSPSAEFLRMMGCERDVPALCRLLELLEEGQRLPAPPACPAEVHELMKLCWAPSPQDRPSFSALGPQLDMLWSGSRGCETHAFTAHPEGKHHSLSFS
The assay is described as follows: Omnia assay for potency against JAK3. The class given is biochemical. As to conditions: read-out: JAK3 Inhibition. In a few lines: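 Continuous-read Omnia kinase assay with 5 nM JAK3, 5 μM ATP (near apparent Km) and 5 μM Y12-Sox peptide in Tris pH 7.5/MgCl2 buffer; enzyme pre-incubated with compound 30 min at 27 °C. Fluorescence (ex360/em485) read over 60 min; initial velocities fitted against inhibitor concentration to give IC50.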

The next assay has as its target ErbB2 (Homo sapiens, UniProt P04626). The experiment in a line: Z'-LYTE biochemical assay, ErbB2 kinase inhibition. The note with it: @ 1 μM. On the procedure: as §1
Assay [1] concerns BTK signaling in Ramos cells. The assay is described as follows: BTK Ramos cellular assay (PLCγ2 phosphorylation). The class given is cell-based. The note with it: Homo sapiens; for IC50: Ramos cells, PLCγ2 phosphorylation, read-out: BTK Inhibition. On the procedure:
Compounds 1-13 and (I-52) were assayed in Ramos human Burkitt lymphoma cells. Ramos cells were grown in suspension in T225 flasks, spun down, resuspended in 50 mls serum-free media and incubated for 1 hour. Compound was added to Ramos cells in serum free media to a final concentration of 1, 0.1, 0.01, or 0.001 μM. Ramos cells were incubated with compound for 1 hour, washed again and resuspended in 100 ul serum-free media. Cells were then stimulated with 1 μg of goat F(ab′)2 Anti-Human IgM and incubated on ice for 10 minutes to activate B cell receptor signaling pathways. After 10 minutes, the cells were washed once with PBS and then lysed on ice with Invitrogen Cell Extraction buffer. 16 μg total protein from lysates was loaded on gels and blots were probed for phosphorylation of the BTK substrate PLCγ2. […] Additional dose response inhibition of BTK signaling with I-13 is depicted in FIG. 9.

A further assay addresses T4, ITK (Homo sapiens, UniProt Q08881).
T4 sequence (Q08881 1-620): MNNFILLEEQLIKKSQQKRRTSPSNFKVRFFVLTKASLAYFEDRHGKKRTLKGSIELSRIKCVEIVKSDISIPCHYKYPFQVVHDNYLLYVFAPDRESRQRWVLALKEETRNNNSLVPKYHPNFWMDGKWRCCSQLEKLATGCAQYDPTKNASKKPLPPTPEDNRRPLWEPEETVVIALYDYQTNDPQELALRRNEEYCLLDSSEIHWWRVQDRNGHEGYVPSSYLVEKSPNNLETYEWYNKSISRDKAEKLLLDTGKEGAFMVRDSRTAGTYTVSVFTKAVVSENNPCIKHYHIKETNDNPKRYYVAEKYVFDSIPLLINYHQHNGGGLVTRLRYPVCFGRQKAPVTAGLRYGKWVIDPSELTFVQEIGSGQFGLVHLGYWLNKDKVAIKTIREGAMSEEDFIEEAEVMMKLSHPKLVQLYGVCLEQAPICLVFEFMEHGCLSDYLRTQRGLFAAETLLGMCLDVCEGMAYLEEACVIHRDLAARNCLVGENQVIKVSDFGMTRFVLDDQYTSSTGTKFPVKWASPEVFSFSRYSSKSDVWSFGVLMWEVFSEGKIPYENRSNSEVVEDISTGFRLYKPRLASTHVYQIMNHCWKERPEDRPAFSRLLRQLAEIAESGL
The experiment in a line: Omnia assay for potency against ITK. The format is biochemical. As to conditions: read-out: ITK inhibition.
From the text: as §2, §3
This example describes continuous-read kinase assays to measure inherent potency of compound against active forms of ITK enzymes as described in Example 10 above except that the modified ITK-optimized reagent conditions are: • [ITK]=10 nM, [ATP]=25 μM, [Y6-Sox]=10 μM (ATP KMapp=33 μM).

A value given as a limit tells only on which side of the number the result lay.

T1 sequence (P00533 25-1210 T790M/L858R): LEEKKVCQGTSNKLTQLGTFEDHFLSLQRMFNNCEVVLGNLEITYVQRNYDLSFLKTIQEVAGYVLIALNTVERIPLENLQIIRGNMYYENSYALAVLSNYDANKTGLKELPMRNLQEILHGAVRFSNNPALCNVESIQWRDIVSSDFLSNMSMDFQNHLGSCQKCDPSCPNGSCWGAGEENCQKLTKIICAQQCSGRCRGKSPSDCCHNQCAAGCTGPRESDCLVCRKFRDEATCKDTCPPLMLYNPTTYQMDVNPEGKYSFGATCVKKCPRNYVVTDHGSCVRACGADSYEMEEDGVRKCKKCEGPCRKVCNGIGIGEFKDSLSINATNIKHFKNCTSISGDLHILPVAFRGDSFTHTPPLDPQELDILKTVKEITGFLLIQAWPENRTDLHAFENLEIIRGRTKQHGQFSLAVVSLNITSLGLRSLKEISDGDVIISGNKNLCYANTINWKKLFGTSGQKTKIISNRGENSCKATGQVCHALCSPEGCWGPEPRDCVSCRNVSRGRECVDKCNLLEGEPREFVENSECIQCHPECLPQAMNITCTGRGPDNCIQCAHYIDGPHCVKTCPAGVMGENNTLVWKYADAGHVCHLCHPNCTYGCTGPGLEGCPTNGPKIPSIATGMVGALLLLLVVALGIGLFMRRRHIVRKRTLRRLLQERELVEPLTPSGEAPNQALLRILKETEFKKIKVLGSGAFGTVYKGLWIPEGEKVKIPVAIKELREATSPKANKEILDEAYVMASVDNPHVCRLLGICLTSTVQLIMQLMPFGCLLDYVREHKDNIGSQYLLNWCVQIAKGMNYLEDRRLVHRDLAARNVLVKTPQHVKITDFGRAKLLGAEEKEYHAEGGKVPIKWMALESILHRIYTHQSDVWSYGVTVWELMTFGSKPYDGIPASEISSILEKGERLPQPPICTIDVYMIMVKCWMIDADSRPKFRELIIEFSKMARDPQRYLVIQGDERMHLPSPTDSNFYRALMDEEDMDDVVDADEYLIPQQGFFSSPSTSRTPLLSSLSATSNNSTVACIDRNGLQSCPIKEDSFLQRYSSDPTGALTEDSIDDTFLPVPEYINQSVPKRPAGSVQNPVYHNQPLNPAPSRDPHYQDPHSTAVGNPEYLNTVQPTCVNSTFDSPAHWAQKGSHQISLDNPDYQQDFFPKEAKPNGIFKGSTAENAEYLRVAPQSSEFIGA
T2 sequence (P00533 25-1210): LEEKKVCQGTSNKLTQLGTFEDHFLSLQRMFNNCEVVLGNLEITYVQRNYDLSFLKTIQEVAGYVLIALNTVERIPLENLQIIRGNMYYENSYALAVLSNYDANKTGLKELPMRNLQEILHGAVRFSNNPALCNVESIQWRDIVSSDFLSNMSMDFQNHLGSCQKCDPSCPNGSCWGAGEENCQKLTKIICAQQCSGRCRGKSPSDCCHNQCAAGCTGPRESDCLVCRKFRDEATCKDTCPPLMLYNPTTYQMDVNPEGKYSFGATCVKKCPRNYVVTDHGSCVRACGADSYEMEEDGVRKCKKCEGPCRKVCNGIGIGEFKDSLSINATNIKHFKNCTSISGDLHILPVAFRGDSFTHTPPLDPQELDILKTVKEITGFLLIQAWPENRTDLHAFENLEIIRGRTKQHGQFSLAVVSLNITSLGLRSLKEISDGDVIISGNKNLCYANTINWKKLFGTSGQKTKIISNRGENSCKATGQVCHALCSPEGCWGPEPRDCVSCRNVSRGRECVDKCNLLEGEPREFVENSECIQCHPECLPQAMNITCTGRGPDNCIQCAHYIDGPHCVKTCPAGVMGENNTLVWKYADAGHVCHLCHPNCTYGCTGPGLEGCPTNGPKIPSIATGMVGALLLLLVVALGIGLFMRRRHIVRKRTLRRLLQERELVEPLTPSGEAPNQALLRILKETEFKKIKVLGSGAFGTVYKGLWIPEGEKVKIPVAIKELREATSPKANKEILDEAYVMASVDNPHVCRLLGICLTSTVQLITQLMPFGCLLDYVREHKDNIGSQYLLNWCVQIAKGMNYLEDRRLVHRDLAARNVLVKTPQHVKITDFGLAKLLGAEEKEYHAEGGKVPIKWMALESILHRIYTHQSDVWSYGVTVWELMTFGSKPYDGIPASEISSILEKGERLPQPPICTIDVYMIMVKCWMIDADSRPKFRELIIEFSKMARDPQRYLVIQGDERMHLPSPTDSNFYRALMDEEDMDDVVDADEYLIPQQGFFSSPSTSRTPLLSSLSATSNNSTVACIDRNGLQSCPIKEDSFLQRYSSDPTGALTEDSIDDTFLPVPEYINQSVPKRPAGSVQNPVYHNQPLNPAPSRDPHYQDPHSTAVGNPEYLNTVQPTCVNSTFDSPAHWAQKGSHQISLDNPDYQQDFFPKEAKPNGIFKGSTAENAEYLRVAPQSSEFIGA
BTK, sequence (Q06187 whole entry): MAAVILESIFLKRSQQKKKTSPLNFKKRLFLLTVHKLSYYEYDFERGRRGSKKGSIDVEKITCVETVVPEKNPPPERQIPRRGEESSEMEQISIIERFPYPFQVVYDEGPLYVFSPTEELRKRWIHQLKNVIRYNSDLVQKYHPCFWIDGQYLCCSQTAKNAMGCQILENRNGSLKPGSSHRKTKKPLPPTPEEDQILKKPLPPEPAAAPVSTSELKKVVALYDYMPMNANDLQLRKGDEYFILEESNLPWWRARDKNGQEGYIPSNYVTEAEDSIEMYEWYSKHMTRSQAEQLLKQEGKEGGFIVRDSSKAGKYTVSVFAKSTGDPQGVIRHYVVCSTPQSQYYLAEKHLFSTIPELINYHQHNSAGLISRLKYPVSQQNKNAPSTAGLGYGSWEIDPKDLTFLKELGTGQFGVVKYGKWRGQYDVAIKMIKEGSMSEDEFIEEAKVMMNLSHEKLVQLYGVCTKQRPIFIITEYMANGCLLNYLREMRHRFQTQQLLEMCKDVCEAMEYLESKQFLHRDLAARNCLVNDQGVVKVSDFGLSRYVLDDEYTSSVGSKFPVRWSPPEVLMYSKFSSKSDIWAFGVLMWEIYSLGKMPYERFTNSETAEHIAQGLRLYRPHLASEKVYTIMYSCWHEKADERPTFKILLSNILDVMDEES
ErbB4, sequence (Q15303 26-1308): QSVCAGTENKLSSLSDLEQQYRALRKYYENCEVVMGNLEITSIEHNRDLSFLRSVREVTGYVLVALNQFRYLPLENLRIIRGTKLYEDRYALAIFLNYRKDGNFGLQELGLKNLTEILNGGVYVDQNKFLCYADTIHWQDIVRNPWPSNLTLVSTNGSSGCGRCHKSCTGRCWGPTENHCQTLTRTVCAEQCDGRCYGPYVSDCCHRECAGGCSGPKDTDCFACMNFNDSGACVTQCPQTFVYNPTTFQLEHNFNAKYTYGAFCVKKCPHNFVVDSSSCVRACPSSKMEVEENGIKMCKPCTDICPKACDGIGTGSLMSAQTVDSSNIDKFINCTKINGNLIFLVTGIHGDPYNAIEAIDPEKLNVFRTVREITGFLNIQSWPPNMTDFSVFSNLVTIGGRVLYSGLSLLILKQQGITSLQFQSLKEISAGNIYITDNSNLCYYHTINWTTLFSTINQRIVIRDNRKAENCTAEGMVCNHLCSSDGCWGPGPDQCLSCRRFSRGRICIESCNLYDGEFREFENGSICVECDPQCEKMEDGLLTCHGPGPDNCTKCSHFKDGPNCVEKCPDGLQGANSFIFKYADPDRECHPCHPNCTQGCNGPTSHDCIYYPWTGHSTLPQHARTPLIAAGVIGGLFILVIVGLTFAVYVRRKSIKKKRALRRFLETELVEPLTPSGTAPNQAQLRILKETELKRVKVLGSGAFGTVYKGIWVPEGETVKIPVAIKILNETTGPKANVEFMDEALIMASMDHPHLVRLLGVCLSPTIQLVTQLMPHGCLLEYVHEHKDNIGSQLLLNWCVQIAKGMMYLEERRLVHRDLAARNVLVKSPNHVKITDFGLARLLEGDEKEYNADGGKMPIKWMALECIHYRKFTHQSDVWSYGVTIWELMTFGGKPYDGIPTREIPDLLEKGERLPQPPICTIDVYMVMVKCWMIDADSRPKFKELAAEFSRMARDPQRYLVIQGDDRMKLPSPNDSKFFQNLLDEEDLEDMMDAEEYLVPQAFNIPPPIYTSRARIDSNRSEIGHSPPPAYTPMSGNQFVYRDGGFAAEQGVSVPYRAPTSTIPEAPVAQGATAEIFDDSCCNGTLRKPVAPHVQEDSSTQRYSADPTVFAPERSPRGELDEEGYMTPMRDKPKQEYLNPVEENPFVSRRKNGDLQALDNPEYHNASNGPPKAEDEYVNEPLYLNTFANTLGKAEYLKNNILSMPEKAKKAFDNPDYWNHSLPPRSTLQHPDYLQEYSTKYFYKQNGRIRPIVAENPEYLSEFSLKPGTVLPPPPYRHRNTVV

With `C/C=C/C(=O)Nc1cccc(Nc2cc(Nc3cccc(Br)c3)ncn2)c1` [I-8, (E)-N-(3-[6-(3-bromophenylamino)-pyrimidin-4-ylamino]-phenyl)-2-butenamide], on ErbB4, testing at 1 µM gave an inhibition of 57%. The IC50 is 1000 to 10000 nM on EGFR (T790M/L858R), at most 10 nM on EGFR (WT), at least 10000 nM at BTK and 1000 to 10000 nM on JAK3. For the same molecule, on ErbB1 (@ 10 nM), the inhibition (in general, the share of the control response that was lost under treatment) at 0.01 µM worked out at 83%.
Consider `C=CC(=O)Nc1cccc(Nc2cc(Oc3cccc(C(F)(F)F)c3)ncn2)c1` [I-9], for which the inhibition at 1 µM amounted to 75% on ErbB4 and 100% on ErbB1 (@ 1 μM). In addition, the IC50 on EGFR (T790M/L858R) is 100 to 1000 nM; on EGFR (WT), at most 10 nM; on BTK, 100 to 1000 nM; at JAK3, 100 to 1000 nM.
With `CN(C)C/C=C/C(=O)Nc1cccc(Nc2cc(Nc3ccc(F)c(Cl)c3)ncn2)c1` [I-18, (E)-N-{3-[6-(3-chloro-4-fluorophenylamino)-pyrimidin-4-ylamino]phenyl}-4-dimethylamino-2-butenamide], the inhibition at 1 µM on ErbB4 came out at 94%; at ErbB2 it was 91%. In addition, the IC50 on EGFR (T790M/L858R) was at most 10 nM; at EGFR (WT), at most 10 nM; at BTK it was 10 to 100 nM; on JAK3, 10 to 100 nM.
In the case of `CN(C)C/C=C/C(=O)Nc1cccc(Nc2cc(Nc3ccc(F)c(Cl)c3)ncn2)n1` [I-52], the IC50 at EGFR (WT), at BTK and at JAK3 was at most 10 nM each time. The molecule further gave an inhibition at 1 µM in [1] (Ramos, at 1 μM, 1 hour) of 50%.
Turning to `C=CC(=O)Nc1cccc(Nc2cc(Oc3ccc4c(c3)OCCO4)ncn2)n1` [I-95, N-(6-(6-(2,3-dihydrobenzo[b][1,4]dioxin-6-yloxy)pyrimidin-4-ylamino)pyridin-2-yl)acrylamide], the IC50 at EGFR (WT) is at most 10 nM; in assay [1] it was at most 10 nM; at ITK it was at least 10000 nM; at BTK, at most 10 nM.
For `COc1ccc(NC(=O)/C=C/CN(C)CCCCNC(=O)CCCC(=O)NCCCOCCOCCOCCCNC(=O)CCCC[C@@H]2SC[C@@H]3NC(=O)N[C@@H]32)cc1Nc1cc(Nc2ccc(F)c(Cl)c2)ncn1` [I-99, N^1-(4-(((E)-4-(3-(6-(3-chloro-4-fluorophenylamino)pyrimidin-4-ylamino)-4-methoxyphenylamino)-4-oxobut-2-enyl)(methyl)amino)butyl)-N^5-(15-oxo-19-((3aS,4S,6aR)-2-oxohexahydro-1H-thieno[3,4-d]imidazol-4-yl)-4,7,10-trioxa-14-azanonadecyl)glutaramide], the IC50 (at EGFR (WT); in assay [1]; at BTK) was at most 10 nM each time.
As for `C=CC(=O)Nc1cc(Nc2cc(Oc3ccc(Oc4ccccc4)cc3)ncn2)cc(C(=O)N2CCOCC2)c1` [I-100, N-(3-(morpholine-4-carbonyl)-5-(6-(4-phenoxy)pyrimidin-4-ylamino)phenyl)acrylamide], the IC50 on EGFR (WT) was at most 10 nM; in assay [1] it was 10 to 100 nM; at ITK, at least 10000 nM; on BTK, at most 10 nM.
